The values that follow come from patent US20090227534A1, “Pharmaceutical Composition Comprising the Combination of a Ketorolac Salt and Vitamins of the-B-Complex for the Treatment of Neuralgia” (LABORATORIOS SENOSITAN S.A. DE C.V., priority 2006, published 2009).

The conditions of data set [1]: cited from earlier work; for time to reach maximum plasma concentration (tmax): healthy humans.
The nature of data set [2]: Laboratory stability tests: ketorolac with acid solutions, direct combination with B-complex, light exposure. It is filed as physicochemical. As to the method: (§1) Clinical studies have shown that ketorolac is a strong and effective analgesic. […] Ketorolac is one of the few non-steroidal anti-inflammatory drugs approved for parenteral administration. However, when administered in combination with other substances, it usually presents stability problems.
Currently, there are no individual pharmaceutical forms for the parenteral administration of ketorolac at 15 mg/ml and B-complex, as described in this invention.
The above situation makes impossible to simply combine ketorolac and B-complex, making it necessary to research and develop a system that provides appropriate stability characteristics for parenteral administration.

Data set [3] in a line: Solubility of ketorolac in water. Type of data set: physicochemical.
Source text: as §1

The subject of the next data set is rats. In words: Antinociception, formalin test (1% 50 μl), second phase. Type of data set: in vivo. The following applies: rat, phase two; for Emax: read-out: maximum effect (decrease in number of shakes).
For another data set, the system named is rat paw. In words: Antinociceptive effect, heat-stimulation model in the rat paw (carrageen). The following applies: oral, measured for 6 hours. Type of data set: in vivo. The procedure: Methodology: We worked with five groups of 8 rats each. The antinociceptive effect was evaluated through the heat-stimulation model in the rat paw. Used substances: saline solution, carrageen to produce the nociceptive effect (pain), ketorolac, riboflavin and B-complex (vitamins B1, B6 and B12). For the doses-response curve, each group received a ketorolac dose so that 0.32, 1, 1.8, 3.2 y 10 mg/kg of weight were administrated orally. The antinociceptive effect was measured for 6 hours. Latency time curves were plot on a graph (the time rat takes before moving […] its paw to avoid the pain) as a function of time. Saline solution was used as a negative control solution (establishing the base level) and carrageen to produce a sensitizing effect (inflammation). […] The following were administered: Riboflavin (alone), Ketorolac (alone), B-Complex (alone), Ketorolac and Riboflavin combination, and Ketorolac and B-Complex combination. Isobolograms were made in order to evaluate the interaction between ketorolac and B-complex using the ED25 values (effective doses) obtained from the dose-response curves for the administered drugs alone or combined.

Read-outs that look alike come from different tables or passages of the source.

Procedure for rats: We worked with five groups of 8 rats each. The antinociception effect was evaluated via the formalin test (1% 50 μl); rats are placed in an observation chamber made of acrylic material. The nociceptive behavior was evaluated based on the number of shakes at the injected paw.
Used substances: saline solution, formalin (produces nociceptive effect), ketorolac, riboflavin and B-complex (vitamins B1, B6 and B12).
For the dose-response curve, each group received a 0.32-10 mg/kg of ketorolac dose, 6.25-100 mg/kg of riboflavin, 56-316 mg/kg of B-complex, ketorolac-B-complex combination and ketorolac-riboflavin combinations.
The antinociceptive effect was measured for sixty minutes. […] Acute or initial phase from 0 to 10 minutes and tonic phase from 15 to 60 minutes.
Curves for the number of shakes against time were plot and the area under the curve was obtained (AUC) for the second phase, using the trapezoids method.
The dose-response curve for each composition was obtained as the percentage of the maximum possible effect.
The antinociceptive effect of ketorolac, B-complex in ratios of 100:100:1 of B1, B6 and B12 (respectively), riboflavin, ketorolac-B-complex combination, and ketorolac-riboflavin combination were evaluated.
A saline solution was used as a negative control solution (base level).
Administration: riboflavin (alone), ketorolac (alone), B-complex (alone), ketorolac-riboflavin combination, and ketorolac-B-complex combination.

Take `O=C(c1ccccc1)c1ccc2n1CCC2C(=O)O` (racemic) [ketorolac, (±)-5(benzoyl)-2,3-dihydro-1N-pyrrolizine-1-carboxylic acid tris hydroxy methyl amino methane]: in data set [1] (intramuscular), the “time to reach maximum plasma concentration (tmax)” value was 46 min. In addition, in data set [1] (oral), the “time to reach maximum plasma concentration (tmax)” value is 53 min. In data set [1] (humans), the excreted in feces is listed as 6% and the excreted in urine was 92%. In addition, the “stability when acid solutions are present” value in data set [2] is listed as “decreases significantly”. In addition, the solubility in water entry in data set [3] is on record as “highly soluble”. Also, in the data set with rats, the ED25 was 2.1 ± 0.5 mg/kg and the Emax stood at 36%. Further, the “antinociceptive effect (area under the latency curve as a function of time), dose-response” value in the data set on rat paw is “dose-dependant response”.
`Cc1cc2nc3c(=O)[nH]c(=O)nc-3n(C[C@H](O)[C@H](O)[C@H](O)CO)c2cc1C` [riboflavin, Riboflavin]: in the data set with rats, the ED25 worked out at 39.8 ± 7.1 mg/kg and the Emax is 33%. The “antinociceptive effect (area under the latency curve as a function of time), dose-response” value in the data set with rat paw is given as “dose-dependant response”.
